# From PubChem BioAssay (NCI)
# Values joined by “and” are separate entries in the source; they are usually repeats but may differ in a detail not shown here. Equal entries are not always repeated.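 Five compound concentrations were applied to cells in 96-well plates for 48 hours; endpoints were derived by simple linear interpolation of the resulting dose-response curve. GI50 is the concentration that inhibits growth by half. Definition used: TGI = concentration required for complete inhibition of growth.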
# What was measured:
# Assay in all cases: NCI-60 cell line screen, 48 h
# [1] = system: MALME-3M melanoma
# [2] = system: HCT-116 colon
# [3] = system: UACC-62 melanoma
# [4] = system: T-47D breast
# [5] = system: KM12 colon
# [6] = system: RPMI-8226 leukemia
# [7] = system: NCI-H23 lung
# [8] = system: NCI/ADR-RES ovarian
# [9] = system: SF-539 CNS
# [10] = system: SK-MEL-2 melanoma
# [11] = system: HT29 colon
# [12] = system: HCC-2998 colon
# [13] = system: M14 melanoma
# [14] = system: SK-MEL-5 melanoma
# [15] = system: U251 CNS
# [16] = system: SR leukemia
# [17] = system: DU-145 prostate
# [18] = system: SF-268 CNS
# [19] = system: LOX IMVI melanoma
# [20] = system: SK-OV-3 ovarian
# [21] = system: TK-10 renal
# [22] = system: UO-31 renal
# [23] = system: COLO 205 colon
# [24] = system: RXF 393 renal
# [25] = system: A549 NSCLC
# [26] = system: OVCAR-8 ovarian
# [27] = system: SW-620 colon
# [28] = system: SK-MEL-28 melanoma
# [29] = system: HCT-15 colon
# [30] = system: NCI-H522 lung
# [31] = system: CCRF-CEM leukemia
# [32] = system: MOLT-4 leukemia
# [33] = system: SF-295 CNS
# [34] = system: MCF7 breast
# [35] = system: SN12C renal
# [36] = system: SNB-75 CNS
# [37] = system: BT-549 breast
# [38] = system: ACHN renal
# [39] = system: UACC-257 melanoma
# [40] = system: SNB-19 CNS
# [41] = system: HOP-62 NSCLC
# [42] = system: MDA-MB-435
# [43] = system: A498 renal
# [44] = system: NCI-H226 lung
# [45] = system: HOP-92 NSCLC
# [46] = system: OVCAR-5 ovarian
# [47] = system: CAKI-1 renal
# [48] = system: OVCAR-4 ovarian
# [49] = system: 786-0 renal
# [50] = system: EKVX NSCLC
# [51] = system: HL-60(TB) leukemia
# [52] = system: OVCAR-3 ovarian
# [53] = system: HS 578T breast
# [54] = system: PC-3 prostate
# [55] = system: MDA-MB-231 breast
# [56] = system: NCI-H460 lung
# [57] = system: IGROV1 ovarian
# [58] = system: K-562 leukemia
smiles,measurement,setting,value
NC1(c2ccc(-c3nc4ccn5c(=O)[nH]nc5c4cc3-c3ccccc3)cc2)CCC1,TGI,[1],3 µM and > 10 µM and 24.3 µM
same,GI50,[2],5.49 µM and > 6.86 µM and 11.3 µM
same,TGI,[2],19.3 µM and > 10 µM and 27.8 µM
same,GI50,[3],0.255 µM and 0.804 µM and 0.811 µM
same,TGI,[3],15.3 µM and > 10 µM and 18 µM
same,GI50,[4],0.0198 µM and 0.0234 µM and 0.0639 µM
same,GI50,[5],6.86 µM and > 8.08 µM and 12.2 µM
same,TGI,[5],20.8 µM and > 10 µM and 25.8 µM
same,GI50,[6],7 µM and > 8.21 µM and 6.27 µM
same,TGI,[6],23.2 µM and > 10 µM and 28.4 µM
same,GI50,[7],13.1 µM and > 10 µM and 13.2 µM
same,TGI,[7],28.3 µM and > 10 µM and 27.2 µM
same,GI50,[8],11.9 µM and > 10 µM and 12.8 µM
same,TGI,[8],26.2 µM and > 10 µM and 26.9 µM
same,GI50,[9],0.197 µM and 1.71 µM and 1.63 µM
same,TGI,[9],5.77 µM and > 10 µM and 14 µM
same,GI50,[10],14.9 µM and > 10 µM and 15.7 µM
same,TGI,[10],30.2 µM and > 10 µM and 31.4 µM
same,GI50,[11],1.5 µM and 2.34 µM and 3.02 µM
same,TGI,[11],9.7 µM and > 10 µM and 24.6 µM
same,GI50,[12],3.35 µM and > 6.01 µM and 3.61 µM
same,TGI,[12],18.6 µM and > 10 µM and 19.7 µM
same,GI50,[13],4.69 µM and > 10 µM and 13.1 µM
same,TGI,[13],9.71 µM and > 10 µM and 28.7 µM
same,GI50,[14],2.09 µM and > 10 µM and 11.1 µM
same,TGI,[14],5.79 µM and > 10 µM and 23.2 µM
same,GI50,[15],2.34 µM and 2.68 µM and 3.65 µM
same,TGI,[15],14.7 µM and > 10 µM and 20 µM
same,GI50,[16],7.28 µM and > 4.45 µM and 8.51 µM
same,TGI,[16],19.6 µM and 9.81 µM and 33.2 µM
same,GI50,[17],13.6 µM and > 10 µM and 13.3 µM
same,TGI,[17],26.7 µM and > 10 µM and 26.4 µM
same,GI50,[18],12.2 µM and > 10 µM and 12.3 µM
same,TGI,[18],26.4 µM and > 10 µM and 27 µM
same,GI50,[19],4.94 µM and > 6.27 µM and 11.8 µM
same,TGI,[19],16.5 µM and > 10 µM and 24.6 µM
same,GI50,[20],0.212 µM and 0.191 µM and 0.449 µM
same,TGI,[20],15.1 µM and > 5.49 µM and 14.9 µM
same,GI50,[21],0.506 µM and 0.477 µM and 0.908 µM
same,TGI,[21],21.2 µM and > 10 µM and 18.4 µM
same,GI50,[22],0.765 µM and 0.344 µM and 1.08 µM
same,TGI,[22],18.3 µM and > 10 µM and 3.06 µM
same,GI50,[23],0.461 µM and 0.651 µM and 1.81 µM
same,TGI,[23],12.4 µM and > 10 µM and 18.4 µM
same,GI50,[24],0.0971 µM and 0.417 µM and 0.129 µM
same,TGI,[24],1.37 µM and 5.66 µM and 1.11 µM
same,GI50,[25],4.33 µM and 6.07 µM and 7.9 µM
same,TGI,[25],20.5 µM and > 10 µM and 23.6 µM
same,GI50,[26],12.6 µM and > 10 µM and 14.9 µM
same,TGI,[26],28.2 µM and > 10 µM and 30.8 µM
same,GI50,[27],14.2 µM and > 10 µM and 15 µM
same,TGI,[27],28.7 µM and > 10 µM and 29.8 µM
same,GI50,[28],1.27 µM and > 10 µM and 7.49 µM
same,TGI,[28],5.37 µM and > 10 µM and 21.6 µM
same,GI50,[29],2.92 µM and > 6.16 µM and 10.4 µM
same,TGI,[29],17.5 µM and > 10 µM and 23.9 µM
same,GI50,[30],7.95 µM and > 10 µM and 11.6 µM
same,TGI,[30],23.2 µM and > 10 µM and 26 µM
same,GI50,[31],0.362 µM and 0.488 µM and 0.402 µM
same,TGI,[31],15.6 µM and > 10 µM and 13.7 µM
same,GI50,[32],0.353 µM and 0.531 µM and 0.313 µM
same,TGI,[32],14.1 µM and > 10 µM and 10.9 µM
same,GI50,[33],0.267 µM and 0.698 µM and 0.611 µM
same,TGI,[33],5.22 µM and > 10 µM and 13.9 µM
same,TGI,[34],6.37 µM and > 10 µM and 17.5 µM
same,GI50,[35],6.95 µM and > 10 µM and 10.6 µM
same,TGI,[35],21.7 µM and > 10 µM and 22.7 µM
same,GI50,[36],0.051 µM and 0.105 µM and 0.12 µM
same,TGI,[36],3.35 µM and 2.62 µM and 4.53 µM
same,GI50,[37],0.462 µM and 0.621 µM and 1.57 µM
same,TGI,[37],13.6 µM and > 10 µM and 16 µM
same,GI50,[38],3.05 µM and > 10 µM and 10.5 µM
same,TGI,[38],14.9 µM and > 10 µM and 22.4 µM
same,GI50,[39],1.54 µM and > 10 µM and 12.7 µM
same,TGI,[39],5.42 µM and > 10 µM and 26.8 µM
same,GI50,[40],2.64 µM and 3.84 µM and 5.83 µM
same,TGI,[40],15.6 µM and > 10 µM and 20.2 µM
same,GI50,[41],3.84 µM and > 10 µM and 10.7 µM
same,TGI,[41],15.9 µM and > 10 µM and 26.2 µM
same,GI50,[42],5.47 µM and > 10 µM and 10.8 µM
same,TGI,[42],21.8 µM and > 10 µM and 23 µM
same,GI50,[43],0.0411 µM and 0.0426 µM and 0.112 µM
same,TGI,[43],0.432 µM and 0.319 µM and 0.865 µM
same,GI50,[44],12.2 µM and > 10 µM and 11.6 µM
same,TGI,[44],25.9 µM and > 10 µM and 26.4 µM
same,GI50,[45],0.035 µM and 0.113 µM and 0.163 µM
same,TGI,[45],3.5 µM and > 2.63 µM and 5.61 µM
same,GI50,[46],11.6 µM and > 10 µM and 12.6 µM
same,TGI,[46],24.7 µM and > 10 µM and 25.7 µM
same,GI50,[47],5.01 µM and > 2.69 µM and 4.86 µM
same,TGI,[47],20 µM and > 10 µM and 20.7 µM
same,GI50,[48],5.57 µM and > 10 µM and 14.7 µM
same,TGI,[48],14 µM and > 10 µM and 30.5 µM
same,GI50,[49],0.816 µM and 0.697 µM and 1.15 µM
same,TGI,[49],11.9 µM and > 9.66 µM and 14.7 µM
same,GI50,[50],3.65 µM and > 10 µM and 1.41 µM
same,TGI,[50],22.8 µM and > 10 µM and 18.5 µM
same,GI50,[51],9.79 µM and > 7.36 µM and 12.3 µM
same,TGI,[51],27.2 µM and > 10 µM and 28.8 µM
same,GI50,[52],0.607 µM and 0.841 µM and 0.814 µM
same,TGI,[52],18.9 µM and > 10 µM and 18.5 µM
same,GI50,[53],0.171 µM and 0.184 µM and 0.28 µM
same,TGI,[53],7.4 µM and > 2.73 µM and 4.3 µM
same,GI50,[54],0.0523 µM and 0.135 µM and 0.141 µM
same,TGI,[54],17 µM and > 10 µM and 17.3 µM
same,GI50,[55],10.7 µM and > 10 µM and 13.5 µM
same,TGI,[55],23.8 µM and > 10 µM and 26.7 µM
same,GI50,[56],0.231 µM and 0.679 µM and 1.19 µM
same,TGI,[56],17.7 µM and > 10 µM and 18.5 µM
same,GI50,[57],0.0878 µM and 0.198 µM and 0.407 µM
same,TGI,[57],13.6 µM and > 10 µM and 9.33 µM
same,GI50,[58],5.43 µM and > 5.59 µM and 9.99 µM
same,TGI,[58],18.2 µM and > 10 µM and 29.1 µM
